Measured values from patent US20250268928A1, “USE OF BACTERIORUBERINS AND GLYCOSYL DERIVATIVES THEREOF TO PREVENT AND TREAT DISEASES INVOLVING DYSREGULATED PROTEIN AGGREGATION, SUCH AS NEURODEGENERATIVE DISEASES” (NAOS INSTITUTE OF LIFE SCIENCE, priority 2020, published 2025).

Experiments:
[1] = test system: Murine cortical neurons; experiment: Neural network integrity of cortical neurons damaged by glutamate (MAP-2 immunolabeling); format: cell-based; settings: 48 hours after, FIG. 4
Protocol: (§1) Murine cortical neurons were cultured as described by Callizot et al., 2013. The cells were mechanically dissociated by three forced passages through the tip of a 10 mL pipette. The cells were then centrifuged at 515×g for 10 minutes at 4° C. The supernatant was removed and the pellet was taken up in a defined culture medium constituted by Neurobasal medium with a 2% solution of B27 supplement, 2 mmol/litre of L-glutamine, 2% of PS solution and 10 ng/ml of BDNF. The viable cells were counted in a Neubauer cytometer, using the trypan blue exclusion test. The cells were seeded in a density of 25000 per well in a 96-well plate pre-coated with poly-L-lysine and were cultured at 37° C. in a CO2 incubator (5%). The medium was changed every two days. The experiments were subsequently carried out on 96-well plates (n=6 culture wells per condition). In the 96 wells of each plate, only 60 were used. The wells in the first and last rows and columns were not used in order to avoid any edge effects and were filled with sterile water.
(§2) The compounds to be tested were dissolved in DMSO and the concentration was adjusted in order to ensure a concentration of DMSO in the culture medium of 0.1%. […]
(§3) For each condition, 30 images per well were automatically recorded using ImageXpress (Molecular Devices) at 20× magnification. […]
(§4) The data were expressed as a percentage of the control. […]

[2] = test system: tau protein; experiment: Hyperphosphorylation of tau protein (AT100) in cortical neurons damaged by glutamate; format: cell-based, Murine; settings: % of the negative control (100%=value 0); glutamate 20 μM, 20 min; 48 hours after; SBE 1 μm, BDNF 50 ng/mL; FIG. 5
Protocol: as §1, §2, §3, §4

[3] = molecular target: T1, Bovine alkaline phosphatase (AP) (Bos taurus, UniProt P19111); experiment: AP-heat test (protection of alkaline phosphatase against heat denaturing, chaperone effect); format: biochemical; settings: 55° C. for 1 hour; all test concentrations (20 μM, 10 μM, 5 μM, 2.5 μM, 1.25 μM); FIG. 2
T1 construct: purchased Sigma P0114
T1 sequence (P19111 20-506 limits assumed): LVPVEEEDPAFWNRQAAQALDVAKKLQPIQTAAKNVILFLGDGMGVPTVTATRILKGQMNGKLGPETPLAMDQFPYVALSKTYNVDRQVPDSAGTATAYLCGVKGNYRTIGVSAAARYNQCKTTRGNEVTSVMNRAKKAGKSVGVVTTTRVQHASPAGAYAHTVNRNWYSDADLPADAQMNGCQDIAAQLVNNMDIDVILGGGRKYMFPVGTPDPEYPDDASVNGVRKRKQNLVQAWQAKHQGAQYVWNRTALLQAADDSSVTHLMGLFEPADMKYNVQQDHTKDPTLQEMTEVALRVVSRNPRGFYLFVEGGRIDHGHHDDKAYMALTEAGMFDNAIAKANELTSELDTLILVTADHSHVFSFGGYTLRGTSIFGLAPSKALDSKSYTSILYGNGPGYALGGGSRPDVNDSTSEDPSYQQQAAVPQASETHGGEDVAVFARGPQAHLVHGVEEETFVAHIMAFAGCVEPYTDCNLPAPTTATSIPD
Source text: The aim of this study was to compare the protein protection capacities of the various components of an extract of carotenoids of the actinobacterium A. agilis separated by chromatography and HPLC. More specifically, we tested all the major fractions to assess their ability to protect the enzyme alkaline phosphatase: • against denaturing via their effect of protecting proteins from denaturing (AP-heat test) (chaperone effect) • against oxidation (APox test) (Protective effect against oxidative stress).
This test is derived from a modification of the APox test for measuring the protection potential of proteins not just against oxidative stress, but against denaturing (heat stress). In fact, under the effect of heat, proteins are denatured and enzymes lose their activity. […]
• Bovine alkaline phosphatase (AP) (Sigma P0114) • Liquid substrate of alkaline phosphatase (Sigma P7998) • Heating block • Flat-bottomed 96-well plate • Plate reader at 405 nm […]
Read OD at 405 nm for 20 min at 37° C.
The protective power of a “molecule X” against denaturing (PPX) is calculated by taking the ratio of the activity of alkaline phosphatase (PA) at 55° C. […]
The activity of the enzyme for each condition is calculated by taking the mean of the optical density values measured at 405 nm for the replicates, from which values the mean value of what are known as the “blank” wells (reagents alone) is subtracted, i.e.: […]

[4] = molecular target: T1, Bovine alkaline phosphatase (AP); experiment: APox test (protection of alkaline phosphatase against oxidative stress); format: biochemical; settings: hydrogen peroxide/FeO4S, 15 min at 37° C.; all test concentrations (20 μM to 1.25 μM); FIG. 3
Source text: The aim of this study was to compare the protein protection capacities of the various components of an extract of carotenoids of the actinobacterium A. agilis separated by chromatography and HPLC. More specifically, we tested all the major fractions to assess their ability to protect the enzyme alkaline phosphatase: • against denaturing via their effect of protecting proteins from denaturing (AP-heat test) (chaperone effect) • against oxidation (APox test) (Protective effect against oxidative stress). This test is described in patent application FR 3002544 A1 and measures the ability of a substance to protect the enzyme alkaline phosphatase from oxidative stress. • Bovine alkaline phosphatase (AP) (Sigma P0114) • Liquid substrate for AP (Sigma P7998) • 30% hydrogen peroxide • FeO4S solution (30 mg in 1 mL H2O) • Flat-bottomed 96-well plate • Plate reader at 405 nm The Following were Deposited in Each Well: • 10 μL of AP diluted to 10^−5 in 10^−2M MgSO4. • 4 μL of test molecule, solvent (negative control) or H2O (positive control)+6 μL of H2O • 30 μL of a hydrogen peroxide solution (from a stock solution composed of 940 μL H2O+40 μL 30% H2O2+20 μL 10^−2 FeO4S) or 30 μL of H2O (positive control) • Allow to incubate for 15 min at 37° C. • Add 50 μL of liquid substrate. • Read OD at 405 nm for 20 min at 37° C. […]

Molecule: N[C@@H](CCC(=O)O)C(=O)O [Glutamate, reference compound]
- reduction in neural network density ([1]; glutamate poisoning alone (20 μM, 20 min)/vehicle): 60%
- hyperphosphorylation of tau protein (AT100 zone, tau/MAP-2 overlap) [2]: +193%

Molecule: Monoglycosylated bacterioruberin [BR-MonoG]
- percentage protection against heat (AP-heat test) [3]: protect the protein more effectively than the BR itself

Molecule: Diglycosylated bacterioruberin [BR-DiG]
- percentage protection against heat (AP-heat test) [3]: protect the protein more effectively than the BR itself
- percentage of protection against oxidative stress (APOX test) [4]: particularly pronounced

B1: BDNF: neurotrophin used as a positive control (protein, UniProt P23560 19-247, looked up)
Neurotrophic factor BDNF …: APMKEANIRGQGGLAYPGVRTHGTLESVNGPKAGSRGLTSLADTFEHVIEELLDEDQKVRPNEENNKDADLYTSRVMLSSQVPLEPPLLFLLEEYKNYLDAANMSMRVRRHSDPARRGELSVCDSISEWVTAADKKTAVDMSGGTVTVLEKVPVSKGQLKQYFYETKCNPMGYTKEGCRGIDKRHWNSQCRTTQSYVRALTMDSKKRIGWRFIRIDTSCVCTLTIKRGR
- total neural network (MAP-2 positive neural length) ([1]; percentage of control, glutamate 20 μM, 20 min, 1 hour pre-incubation, SBE 1 μm, BDNF 50 ng/mL): 85%
- hyperphosphorylation of tau protein (AT100 zone, tau/MAP-2 overlap) [2]: +121%
